Source: patent US10800792B2, “Inhibitors of Bruton's tyrosine kinase and method of their use” (JANSSEN PHARMACEUTICA NV, priority 2015, dated 2020)

The compounds below were run against unphosphorylated-BTK kinase domain (UP-BTK), GST-tagged human BTK (389-659aa) (Homo sapiens (Human), UniProt Q06187) (assay: BTK kinase Lanthascreen binding assay). Conditions: Lanthascreen tracer competition, 60 minutes incubation; pIC50 = negative log of the IC50 in molar.
Chain of unphosphorylated-BTK kinase domain (UP-BTK), GST-tagged human BTK (389-659aa) (Q06187 389-659): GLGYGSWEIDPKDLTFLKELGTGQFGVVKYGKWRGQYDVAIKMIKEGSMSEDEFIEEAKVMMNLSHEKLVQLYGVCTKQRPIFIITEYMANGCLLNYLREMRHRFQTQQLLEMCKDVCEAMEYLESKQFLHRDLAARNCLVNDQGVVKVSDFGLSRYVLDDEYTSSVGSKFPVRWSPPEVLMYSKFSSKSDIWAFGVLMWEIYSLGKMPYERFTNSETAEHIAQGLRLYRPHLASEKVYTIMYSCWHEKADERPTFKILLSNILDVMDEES
Outline: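 Lanthascreen competition binding; test compound vs fluorescent tracer on unphosphorylated BTK. Output: pIC50 (−log IC50, M).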
For C=CC(=O)N1CCC[C@@H](NC(=O)c2sc3nccc4c3c2NC(=O)N4c2cccc(C3COC3)c2)C1 [Example 632, (R)—N-(1-Acryloylpiperidin-3-yl)-5-(3-(oxetan-3-yl)phenyl)-4-oxo-4,5-dihydro-3H-1-thia-3,5,8-triazaacenaphthylene-2-carboxamide], the “BTK_I_binding pIC50” value was 5.9. O=C(N[C@@H]1CCCNC1)c1sc2nccc3c2c1NC(=O)N3c1cncc(-c2ccccc2)c1 [Example 618, (R)-4-Oxo-5-(5-phenylpyridin-3-yl)-N-(piperidin-3-yl)-4,5-dihydro-3H-1-thia-3,5,8-triazaacenaphthylene-2-carboxamide] was tested, and the “BTK_I_binding pIC50” value was 6.0. CCC(=O)N1CC[C@@H](NC(=O)c2sc3nccc4c3c2NC(=O)N4c2ccc(Oc3ccccc3)cc2C)C1 [Example 843, (R)-5-(2-Methyl-4-phenoxyphenyl)-4-oxo-N-(1-propionylpyrrolidin-3-yl)-4,5-dihydro-3H-1-thia-3,5,8-triazaacenaphthylene-2-carboxamide] was tested, and the “BTK_I_binding pIC50” value was 7.6. For Cc1cc(Oc2ccccc2)ccc1N1C(=O)Nc2c(C(=O)N[C@@H]3CCCN(C(=O)[C@H]4CCCN4)C3)sc3nccc1c23 [Example 876, 5-(2-Methyl-4-phenoxyphenyl)-4-oxo-N—((R)-1-((R)-pyrrolidine-2-carbonyl)piperidin-3-yl)-4,5-dihydro-3H-1-thia-3,5,8-triazaacenaphthylene-2-carboxamide], the “BTK_I_binding pIC50” value was 7.1. With COc1ccccc1Oc1ccc(N2C(=O)Nc3c(C(=O)NC4CCCNC4)sc4nccc2c34)c(C)c1 (stereo not shown) [Example 870, 5-(4-(2-Methoxyphenoxy)-2-methylphenyl)-4-oxo-N-(piperidin-3-yl)-4,5-dihydro-3H-1-thia-3,5,8-triazaacenaphthylene-2-carboxamide] the “BTK_I_binding pIC50” value was 7.3. With CC(=O)N1CCC[C@@H]1/C=C(\C#N)C(=O)N1CCC[C@@H](NC(=O)c2sc3nccc4c3c2NC(=O)N4c2ccc(Oc3ccccc3)cc2C)C1 [Example 683, N—((R)-1-((E)-3-((R)-1-Acetylpyrrolidin-2-yl)-2-cyanoacryloyl)piperidin-3-.l)-5-(2-methyl-4-phenoxyphenyl)-4-oxo-4,5-dihydro-3H-1-thia-3,5,8-triazaacenaphthylene-2-carboxamide] the “BTK_I_binding pIC50” value was 7.7. With C=CC(=O)N1CCC[C@@H](NC(=O)c2sc3nccc4c3c2NC(=O)N4c2cnc(OC(C)C)cc2C)C1 (single isomer, unassigned) [Example 789, (R)—N-(1-Acryloylpiperidin-3-yl)-5-(*S)-(6-isopropoxy-4-methylpyridin-3-yl)-4-oxo-4,5-dihydro-3H-1-thia-3,5,8-triazaacenaphthylene-2-carboxamide] the “BTK_I_binding pIC50” value was 8.1. With C=CC(=O)N1CCC[C@@H](NC(=O)c2sc3nccc4c3c2NC(=O)N4c2ccc(OC3COC3)cc2)C1 [Example 612, (R)—N-(1-Acryloylpiperidin-3-yl)-5-(4-(oxetan-3-yloxy)phenyl)-4-oxo-4,5-dihydro-3H-1-thia-3,5,8-triazaacenaphthylene-2-carboxamide] the “BTK_I_binding pIC50” value was 6.1.

Same assay, conditions: Lanthascreen tracer competition, 60 minutes incubation; pIC50 = negative log of the IC50 in molar; read-out: BTK_I_binding pIC50 (converted)
Compound O=C(N[C@@H]1CCCNC1)c1sc2nccc3c2c1NC(=O)N3c1cccc(-c2ccncc2)c1 [Example 647, (R)-4-Oxo-N-(piperidin-3-yl)-5-(3-(pyridin-4-yl)phenyl)-4,5-dihydro-3H-1-thia-3,5,8-triazaacenaphthylene-2-carboxamide] has an IC50 of over 10000 nM.

Same assay, conditions: pIC50 = negative log of the IC50 in molar; 60 minutes incubation, 50 nM Tracer 236
For C/C=C(\Cl)C(=O)N1CCC[C@@H](NC(=O)c2sc3nccc4c3c2NC(=O)N4c2ccc(Oc3ccccc3)cc2C)C1 [Example 277, (R,Z)—N-(1-(2-Chlorobut-2-enoyl)piperidin-3-yl)-5-(2-methyl-4-phenoxyphenyl)-4-oxo-4,5-dihydro-3H-1-thia-3,5,8-triazaacenaphthylene-2-carboxamide], the “BTK_I_binding pIC50” value was 6.2. In the case of Cc1cc(Oc2ccccc2)ccc1N1C(=O)Nc2c(C(=O)NC3CC[C@H](C)NC3)sc3nccc1c23 (mixture of isomers) [Example 153, 5-(2-Methyl-4-phenoxyphenyl)-N-((6S)-6-methylpiperidin-3-yl)-4-oxo-4,5-dihydro-3H-1-thia-3,5,8-triazaacenaphthylene-2-carboxamide], the “BTK_I_binding pIC50” value is reported as 6.8. With Cc1cc(Oc2cccc(COc3ccccc3C#N)c2)ccc1N1C(=O)Nc2c(C(=O)N[C@@H]3CCCN(C)C3)sc3nccc1c23 (mixture of isomers) [Example 24, (R)-5-(4-(3-((2-Cyanophenoxy)methyl)phenoxy)-2-methylphenyl)-N-(1-methylpiperidin-3-yl)-4-oxo-4,5-dihydro-3H-1-thia-3,5,8-triazaacenaphthylene-2-carboxamide] the “BTK_I_binding pIC50” value was 7.7. For Cc1cc(Oc2ccccc2)ccc1N1C(=O)Nc2c(C(=O)N[C@@H]3CCCN(C(C)C)C3)sc3nccc1c23 [Example 101, (R)—N-(1-Isopropylpiperidin-3-yl)-5-(2-methyl-4-phenoxyphenyl)-4-oxo-4,5-dihydro-3H-1-thia-3,5,8-triazaacenaphthylene-2-carboxamide], the “BTK_I_binding pIC50” value was 6.8. For O=C(N[C@@H]1CCCNC1)c1sc2nccc3c2c1NC(=O)N3c1ccc(Cl)c(C(F)(F)F)c1 [Example 280, (R)-5-(4-Chloro-3-(trifluoromethyl)phenyl)-4-oxo-N-(piperidin-3-yl)-4,5-dihydro-3H-1-thia-3,5,8-triazaacenaphthylene-2-carboxamide], the “BTK_I_binding pIC50” value was 5.8. For CCc1ccccc1Oc1ccc(N2C(=O)Nc3c(C(=O)N[C@@H]4CCCN(C(=O)/C(C#N)=C/C5CC5)C4)sc4nccc2c34)c(C)c1 [Example 76, (R,E)-N-(1-(2-Cyano-3-cyclopropylacryloyl)piperidin-3-yl)-5-(4-(2-ethylphenoxy)-2-methylphenyl)-4-oxo-4,5-dihydro-3H-1-thia-3,5,8-triazaacenaphthylene-2-carboxamide], the “BTK_I_binding pIC50” value was 6.8. In the case of Cc1cc(Oc2ccccc2)ccc1N1C(=O)Nc2c(C(=O)N[C@@H]3CCN(C(=O)CCS(C)(=O)=O)C3)sc3nccc1c23 [Example 104, (R)-5-(2-Methyl-4-phenoxyphenyl)-N-(1-(3-(methylsulfonyl)propanoyl)pyrrolidin-3-yl)-4-oxo-4,5-dihydro-3H-1-thia-3,5,8-triazaacenaphthylene-2-carboxamide], the “BTK_I_binding pIC50” value is reported as 7.7.

Same assay, conditions: pIC50 = negative log of the IC50 in molar; 60 minutes incubation, 50 nM Tracer 236; read-out: BTK_I_binding pIC50 (converted)
COc1ccc(N2C(=O)Nc3c(C(=O)N[C@@H]4CCCN(C(=O)C=[13CH2])C4)sc4nccc2c34)c(C)c1 [Example 110, (R)—N-(1-^13C-Acryloylpiperidin-3-yl)-5-(4-methoxy-2-methylphenyl)-4-oxo-4,5-dihydro-3H-1-thia-3,5,8-triazaacenaphthylene-2-carboxamide] showed an IC50 of 158 nM.

Same assay, conditions: unphosphorylated-BTK kinase domain, 50 nM Tracer 236, 60 minutes; pIC50 = negative log of the IC50 in molar
For Cc1cc(Oc2ccccc2)ccc1N1C(=O)Nc2c(C(=O)NC3(CO)CCOCC3)sc3nccc1c23 [Example 437, N-(4-(Hydroxymethyl)tetrahydro-2H-pyran-4-yl)-5-(*R)-(2-methyl-4-phenoxyphenyl)-4-oxo-4,5-dihydro-3H-1-thia-3,5,8-triazaacenaphthylene-2-carboxamide], the “BTK_I_binding pIC50” value was 5.8. Cc1cc(Oc2ccccc2)ccc1N1C(=O)Nc2c(C(=O)N[C@@H]3CCN(C(=O)/C(C#N)=C/C4CC4)C3)sc3nccc1c23 (single isomer, unassigned) [Example 491, (R,E)-N-(1-(2-Cyano-3-cyclopropylacryloyl)pyrrolidin-3-yl)-5-(*S)-(2-methyl-4-phenoxyphenyl)-4-oxo-4,5-dihydro-3H-1-thia-3,5,8-triazaacenaphthylene-2-carboxamide] was tested, and the “BTK_I_binding pIC50” value was 7.6. In the case of O=C(N[C@@H]1CCCNC1)c1sc2nccc3c2c1NC(=O)N3c1ccc(-c2cccs2)cc1 [Example 407, (R)-4-Oxo-N-(piperidin-3-yl)-5-(4-(thiophen-2-yl)phenyl)-4,5-dihydro-3H-1-thia-3,5,8-triazaacenaphthylene-2-carboxamide], the “BTK_I_binding pIC50” value is reported as 5.1. C=CC(=O)N1CCC[C@@H](NC(=O)c2sc3nccc4c3c2NC(=O)N4c2cccc(CCC)c2)C1 [Example 533, (R)—N-(1-Acryloylpiperidin-3-yl)-4-oxo-5-(3-propylphenyl)-4,5-dihydro-3H-1-thia-3,5,8-triazaacenaphthylene-2-carboxamide] was tested, and the “BTK_I_binding pIC50” value was 7.5.

Same assay, conditions: unphosphorylated-BTK kinase domain, 50 nM Tracer 236, 60 minutes; pIC50 = negative log of the IC50 in molar; read-out: BTK_I_binding pIC50 (converted)
With CC(C)Oc1ccc(N2C(=O)Nc3c(C(=O)N[C@@H]4CCCNC4)sc4nccc2c34)cc1 [Example 405, (R)-5-(4-Isopropoxyphenyl)-4-oxo-N-(piperidin-3-yl)-4,5-dihydro-3H-1-thia-3,5,8-triazaacenaphthylene-2-carboxamide] the IC50 was 3160 nM. For [2H]C([2H])([2H])N1CCC[C@@H](NC(=O)c2sc3nccc4c3c2NC(=O)N4c2ccc(Oc3ccccc3)cc2C)C1 [Example 370, (R)-5-(2-Methyl-4-phenoxyphenyl)-N-(1-trideuteriomethylpiperidin-3-yl)-4-oxo-4,5-dihydro-3H-1-thia-3,5,8-triazaacenaphthylene-2-carboxamide], the IC50 was 100 nM.

Same assay, conditions: unphosphorylated-BTK kinase domain, 60 minutes incubation, 50 nM Tracer 236; pIC50 = negative log of the IC50 in molar
Cc1cc(Oc2ccccc2)ccc1N1C(=O)Nc2c(C(=O)NC3CCN(C(=O)/C(C#N)=C/C4CC4)CC3)sc3nccc1c23 [Example 916, (E)-N-(1-(2-Cyano-3-cyclopropylacryloyl)piperidin-4-yl)-5-(2-methyl-4-phenoxyphenyl)-4-oxo-4,5-dihydro-3H-1-thia-3,5,8-triazaacenaphthylene-2-carboxamide] was tested, and the “BTK_I_binding pIC50” value was 6.4. For COc1ccccc1Oc1ccc(N2C(=O)Nc3c(C(=O)NC4CCNCC4)sc4nccc2c34)c(C)c1 [Example 917, 5-(4-(2-Methoxyphenoxy)-2-methylphenyl)-4-oxo-N-(piperidin-4-yl)-4,5-dihydro-3H-1-thia-3,5,8-triazaacenaphthylene-2-carboxamide], the “BTK_I_binding pIC50” value was 6.4.
